# Source: patent publication EP2773641B1, “BIARYL ETHER SULFONAMIDES AND THEIR USE AS THERAPEUTIC AGENTS” (Xenon Pharmaceuticals Inc., priority 2011, dated 2013)
# Where two headings read alike, the source gives them in different places.
# Legend:
# Nav1.7 = target: T1, Nav1.7 (Homo sapiens, UniProt Q15858); assay: Patch voltage clamp electrophysiology assay, block of the inactivated state of Nav1.7; assay type: cell-based; settings: affinity for the inactivated state, HEK-293 cells stably expressing human Nav1.7 with β1 subunit, held at -60 mV
# T1 construct: permanently transfected with an expression vector containing the full-length cDNA coding for the desired human sodium channel α-subunit; expressed in transfected cells
# Experimental: (§1) The following patch voltage clamp electrophysiology studies were performed on representative compounds of the invention using human embryonic kidney cells (HEK), permanently transfected with an expression vector containing the full-length cDNA coding for the desired human sodium channel α-subunit, grown in culture media containing 10% FBS, 1% PSG, and 0.5 mg/mL G418 at 37 °C with 5% CO2. […] Nav1.7 and Nav1.5 cDNAs (NM_002977 and AC137587; SCN5A, respectively) were stably expressed in HEK-293 cells. The β1 subunit was coexpressed only in the Nav1.7 cell line.
# Sodium currents were measured using the patch clamp technique in the whole-cell configuration using either a PatchXpress automated voltage clamp or manually using an Axopatch 200B (Axon Instruments) or Model 2400 (A-M systems) amplifier. […] The pipette was filled with a solution comprised of: 5 mM NaCl, 10 mM CsCl, 120 mM CsF, 0.1 mM CaCl2, 2 mM MgCl2, 10 mM HEPES, 10 mM EGTA; and adjusted to pH 7.2 with CsOH. The external solution had the following composition: 140 mM NaCl, 5 mM KCI, 2 mM CaCl2, 1 mM MgCl2, 10 mM HEPES; and adjusted to pH 7.4 with NaOH. In some studies, the external sodium was reduced by equimolar replacement with choline. Osmolarity in the CsF internal and NaCl external solutions was adjusted to 300 mOsm/kg and 310 mOsm/kg with glucose, respectively. All recordings were performed at ambient temperature in a bath chamber with a volume of 150 µL. Control sodium currents were measured in 0.5% DMSO. Controls and representative compounds of the invention were applied to the recording chamber through a 4-pinch or 8-pinch valve bath perfusion system manufactured by ALA Scientific Instruments.
# Series resistance compensation was applied (60-80%). […] All statistics in this study are given as mean ± SD.
# The membrane potential was maintained at a voltage where inactivation of the channel is complete (which was -60 mV for both Nav1.7 and Nav1.5). The voltage is then stepped back to a very negative (Vhold = -150mV) voltage for 20 ms and then a test pulse is applied to quantify the compound block. […] The percent decrease in sodium current following wash-on of compound was taken as the percent block of sodium channels.
# The Example numbers provided in Table 1 and Table 2 correspond to the Examples herein.
# Nav1.5 = target: T2, Nav1.5 (Homo sapiens, UniProt Q14524); assay: Patch voltage clamp electrophysiology assay, block of the inactivated state of Nav1.5; assay type: cell-based; settings: IC50 class; affinity for the inactivated state; HEK-293 cells stably expressing human Nav1.5; held at -60 mV
# T2 construct: permanently transfected with an expression vector containing the full-length cDNA coding for the desired human sodium channel α-subunit; expressed in transfected cells
# Experimental: Patch voltage clamp electrophysiology allows for the direct measurement and quantification of block of voltage-gated sodium channels (Nav's), and allows the determination of the time- and voltage-dependence of block which has been interpreted as differential binding to the resting, open, and inactivated states of the sodium channel (Hille, B., Journal of General Physiology (1977), 69: 497-515).
# as §1
# Sodium currents were measured using the patch clamp technique in the whole-cell configuration using either a PatchXpress automated voltage clamp or manually using an Axopatch 200B (Axon Instruments) or Model 2400 (A-M systems) amplifier. The manual voltage clamp protocol was as follows: Borosilicate glass micropipettes were fire-polished to a tip diameter yielding a resistance of 2-4 Mohms in the working solutions. The pipette was filled with a solution comprised of: 5 mM NaCl, 10 mM CsCl, 120 mM CsF, 0.1 mM CaCl2, 2 mM MgCl2, 10 mM HEPES, 10 mM EGTA; and adjusted to pH 7.2 with CsOH. The external solution had the following composition: 140 mM NaCl, 5 mM KCI, 2 mM CaCl2, 1 mM MgCl2, 10 mM HEPES; and adjusted to pH 7.4 with NaOH. In some studies, the external sodium was reduced by equimolar replacement with choline. Osmolarity in the CsF internal and NaCl external solutions was adjusted to 300 mOsm/kg and 310 mOsm/kg with glucose, respectively. All recordings were performed at ambient temperature in a bath chamber with a volume of 150 µL. Control sodium currents were measured in 0.5% DMSO. Controls and representative compounds of the invention were applied to the recording chamber through a 4-pinch or 8-pinch valve bath perfusion system manufactured by ALA Scientific Instruments.
# Currents were recorded at 40 kHz sampling frequency, filtered at […], and stored using a Digidata-1322A analogue/digital interface with the pClamp software (Axon Instruments). Series resistance compensation was applied (60-80%). […] All statistics in this study are given as mean ± SD.
# The membrane potential was maintained at a voltage where inactivation of the channel is complete (which was -60 mV for both Nav1.7 and Nav1.5). The voltage is then stepped back to a very negative (Vhold = -150mV) voltage for 20 ms and then a test pulse is applied to quantify the compound block. The 20 ms brief repolarization was long enough for compound-free channels to completely recover from fast inactivation, but the compound-bound channels recovered more slowly such that negligible recovery could occur during this interval. The percent decrease in sodium current following wash-on of compound was taken as the percent block of sodium channels.
# The Example numbers provided in Table 1 and Table 2 correspond to the Examples herein. TABLE 1: Inhibition of Nav1.7
# T2 sequence (Q14524 whole entry): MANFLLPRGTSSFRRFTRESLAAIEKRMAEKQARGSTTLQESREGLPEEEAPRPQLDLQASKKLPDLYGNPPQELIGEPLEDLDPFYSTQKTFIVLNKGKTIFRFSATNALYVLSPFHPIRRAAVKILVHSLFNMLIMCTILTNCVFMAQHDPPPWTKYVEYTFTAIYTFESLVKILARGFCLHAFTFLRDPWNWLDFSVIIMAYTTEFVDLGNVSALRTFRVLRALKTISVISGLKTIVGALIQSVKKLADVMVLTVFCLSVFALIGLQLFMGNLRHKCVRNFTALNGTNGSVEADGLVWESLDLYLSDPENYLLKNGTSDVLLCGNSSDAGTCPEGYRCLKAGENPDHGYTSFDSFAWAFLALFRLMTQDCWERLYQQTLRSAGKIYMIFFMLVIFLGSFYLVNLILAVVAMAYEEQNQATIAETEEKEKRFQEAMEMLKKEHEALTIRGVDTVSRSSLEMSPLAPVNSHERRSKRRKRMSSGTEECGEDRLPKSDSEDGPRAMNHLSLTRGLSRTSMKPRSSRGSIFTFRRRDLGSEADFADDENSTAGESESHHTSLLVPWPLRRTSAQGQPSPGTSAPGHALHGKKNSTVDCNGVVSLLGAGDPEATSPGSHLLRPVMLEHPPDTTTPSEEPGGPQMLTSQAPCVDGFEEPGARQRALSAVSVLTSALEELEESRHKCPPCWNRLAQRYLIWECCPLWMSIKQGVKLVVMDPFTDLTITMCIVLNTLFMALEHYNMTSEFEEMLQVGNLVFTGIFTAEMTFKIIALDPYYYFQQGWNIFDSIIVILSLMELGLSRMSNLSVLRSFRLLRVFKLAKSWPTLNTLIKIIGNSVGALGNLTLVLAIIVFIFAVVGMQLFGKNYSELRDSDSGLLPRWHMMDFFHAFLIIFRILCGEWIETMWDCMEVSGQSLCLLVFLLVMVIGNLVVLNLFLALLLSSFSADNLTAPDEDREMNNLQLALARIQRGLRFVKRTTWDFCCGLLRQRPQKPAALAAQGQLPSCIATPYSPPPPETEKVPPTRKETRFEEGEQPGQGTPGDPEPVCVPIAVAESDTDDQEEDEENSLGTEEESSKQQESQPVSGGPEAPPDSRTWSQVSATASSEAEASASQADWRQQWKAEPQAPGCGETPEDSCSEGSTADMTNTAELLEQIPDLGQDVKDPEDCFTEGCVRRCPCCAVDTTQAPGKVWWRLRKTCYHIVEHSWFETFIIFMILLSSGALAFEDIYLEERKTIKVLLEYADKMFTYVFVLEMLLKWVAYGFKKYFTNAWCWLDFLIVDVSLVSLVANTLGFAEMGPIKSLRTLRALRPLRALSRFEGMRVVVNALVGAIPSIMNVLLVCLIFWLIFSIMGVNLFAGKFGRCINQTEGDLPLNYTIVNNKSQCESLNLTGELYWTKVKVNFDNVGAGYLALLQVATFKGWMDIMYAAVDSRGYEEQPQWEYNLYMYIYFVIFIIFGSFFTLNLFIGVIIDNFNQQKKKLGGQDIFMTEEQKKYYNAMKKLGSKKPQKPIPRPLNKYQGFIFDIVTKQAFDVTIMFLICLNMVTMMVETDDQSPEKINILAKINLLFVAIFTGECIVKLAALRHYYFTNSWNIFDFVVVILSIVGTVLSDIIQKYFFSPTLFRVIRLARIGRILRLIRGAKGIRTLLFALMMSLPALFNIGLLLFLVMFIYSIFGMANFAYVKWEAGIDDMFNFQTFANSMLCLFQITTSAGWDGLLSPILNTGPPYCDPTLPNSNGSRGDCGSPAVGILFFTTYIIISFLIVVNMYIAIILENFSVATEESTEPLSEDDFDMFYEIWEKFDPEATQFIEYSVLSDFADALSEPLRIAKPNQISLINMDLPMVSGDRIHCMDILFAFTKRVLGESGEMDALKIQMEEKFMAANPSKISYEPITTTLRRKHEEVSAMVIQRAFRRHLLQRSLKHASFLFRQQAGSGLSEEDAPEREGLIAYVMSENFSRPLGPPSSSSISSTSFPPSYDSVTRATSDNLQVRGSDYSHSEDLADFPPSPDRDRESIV
# T1 sequence (Q15858 1-1977 isoform Q15858-3): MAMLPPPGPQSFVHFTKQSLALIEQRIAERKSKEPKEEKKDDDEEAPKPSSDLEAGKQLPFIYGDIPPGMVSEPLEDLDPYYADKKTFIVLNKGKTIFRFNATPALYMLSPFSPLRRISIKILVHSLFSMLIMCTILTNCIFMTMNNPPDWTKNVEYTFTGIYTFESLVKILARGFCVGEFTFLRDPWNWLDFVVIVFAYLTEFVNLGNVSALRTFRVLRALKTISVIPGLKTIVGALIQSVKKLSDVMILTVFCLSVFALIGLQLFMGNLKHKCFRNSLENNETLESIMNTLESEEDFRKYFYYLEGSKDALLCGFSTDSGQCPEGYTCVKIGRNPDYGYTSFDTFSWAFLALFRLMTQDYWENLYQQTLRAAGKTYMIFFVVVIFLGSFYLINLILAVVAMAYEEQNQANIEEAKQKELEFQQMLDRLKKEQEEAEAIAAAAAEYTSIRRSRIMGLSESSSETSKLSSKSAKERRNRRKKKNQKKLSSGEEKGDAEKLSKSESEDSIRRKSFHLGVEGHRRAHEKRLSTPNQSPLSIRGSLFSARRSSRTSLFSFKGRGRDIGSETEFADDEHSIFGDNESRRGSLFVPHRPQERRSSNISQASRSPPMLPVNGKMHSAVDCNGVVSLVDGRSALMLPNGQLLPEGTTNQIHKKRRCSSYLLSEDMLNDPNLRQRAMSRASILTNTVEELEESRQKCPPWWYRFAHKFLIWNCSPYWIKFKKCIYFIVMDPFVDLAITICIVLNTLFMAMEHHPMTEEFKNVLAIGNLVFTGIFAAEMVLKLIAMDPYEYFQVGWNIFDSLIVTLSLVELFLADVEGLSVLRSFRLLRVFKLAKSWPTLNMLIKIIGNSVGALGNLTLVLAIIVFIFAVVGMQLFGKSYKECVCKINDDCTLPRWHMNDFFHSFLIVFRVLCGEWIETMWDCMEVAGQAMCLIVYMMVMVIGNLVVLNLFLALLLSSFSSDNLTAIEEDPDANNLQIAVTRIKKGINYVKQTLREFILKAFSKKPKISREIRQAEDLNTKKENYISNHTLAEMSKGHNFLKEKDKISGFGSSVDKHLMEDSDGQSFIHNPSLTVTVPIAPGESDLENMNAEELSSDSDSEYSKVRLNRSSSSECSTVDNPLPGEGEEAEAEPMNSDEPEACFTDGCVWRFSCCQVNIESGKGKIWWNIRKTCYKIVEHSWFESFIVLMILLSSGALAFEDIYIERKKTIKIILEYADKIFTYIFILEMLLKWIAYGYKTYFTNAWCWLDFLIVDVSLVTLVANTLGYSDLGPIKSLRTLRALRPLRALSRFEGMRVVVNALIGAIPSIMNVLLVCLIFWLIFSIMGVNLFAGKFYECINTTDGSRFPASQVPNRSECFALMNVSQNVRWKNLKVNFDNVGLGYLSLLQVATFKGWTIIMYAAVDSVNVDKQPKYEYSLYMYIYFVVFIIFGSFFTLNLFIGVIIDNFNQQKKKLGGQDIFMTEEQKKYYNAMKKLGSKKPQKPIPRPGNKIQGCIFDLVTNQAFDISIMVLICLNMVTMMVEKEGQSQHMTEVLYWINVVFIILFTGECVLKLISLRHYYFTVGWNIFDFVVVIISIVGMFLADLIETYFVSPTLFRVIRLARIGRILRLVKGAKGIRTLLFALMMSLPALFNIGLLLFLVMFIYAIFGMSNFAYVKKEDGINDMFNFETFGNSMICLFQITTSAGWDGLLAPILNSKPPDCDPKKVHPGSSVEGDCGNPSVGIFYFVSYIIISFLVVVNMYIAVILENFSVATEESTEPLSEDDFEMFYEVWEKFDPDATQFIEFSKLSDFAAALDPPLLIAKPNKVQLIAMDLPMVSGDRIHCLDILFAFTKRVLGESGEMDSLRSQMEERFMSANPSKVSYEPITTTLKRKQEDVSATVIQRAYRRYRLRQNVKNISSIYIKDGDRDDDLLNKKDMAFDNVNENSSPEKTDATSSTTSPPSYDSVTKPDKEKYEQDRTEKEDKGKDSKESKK
# T1 sequence (Q07699 19-218 partner): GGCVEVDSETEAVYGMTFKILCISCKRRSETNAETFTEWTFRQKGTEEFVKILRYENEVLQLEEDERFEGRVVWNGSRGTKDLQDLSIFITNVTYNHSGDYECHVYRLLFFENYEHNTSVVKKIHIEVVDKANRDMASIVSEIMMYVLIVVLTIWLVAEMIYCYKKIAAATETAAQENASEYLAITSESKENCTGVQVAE
Structure (SMILES),IC50 (Nav1.7; read-out: Nav1.7 IC50) [nM],"IC50 (Nav1.7; IC50 class, read-out: Nav1.7) [nM]",IC50 (Nav1.5) [nM]
"O=S(=O)(Nc1ncns1)c1cc(F)c(Oc2ccc(Cl)cc2-c2ccnc3nccn23)cc1F [Example 31, 4-(4-chloro-2-(imidazo[1,2-a]pyrimidin-5-yl)phenoxy)-2,5-difluoro-N-(1,2,4-thiadiazol-5-yl)benzenesulfonamide]",8,,> 10000
"CN(c1ncns1)S(=O)(=O)c1cc(F)c(Oc2ccc(Cl)cc2-c2ccc3[nH]c(N)nc3c2)cc1F [Example 41, 4-(2-(2-amino-1H-benzo[d]imidazol-5-yl)-4-chlorophenoxy)-2,5-difluoro-N-methyl-N-(1,2,4-thiadiazol-5-yl)benzenesulfonamide]",67.8,100 to 1000,1000 to 10000
"O=S(=O)(Nc1ncns1)c1cc(F)c(Oc2ccc(Cl)cc2-c2cccc3nccn23)cc1F [Example 30, 4-(4-chloro-2-(imidazo[1,2-a]pyridin-5-yl)phenoxy)-2,5-difluoro-N-(1,2,4-thiadiazol-5-yl)benzenesulfonamide]",13.4,,> 10000
"Nc1nc2cc(-c3cc(Cl)ccc3Oc3cc(F)c(S(=O)(=O)Nc4ncns4)cc3F)ccc2[nH]1 [Example 38, 4-(2-(2-amino-1H-benzo[d]imidazol-5-yl)-4-chlorophenoxy)-2,5-difluoro-N-(1,2,4-thiadiazol-5-yl)benzenesulfonamide]",0.3,,> 10000
"Nc1n[nH]c2ccc(-c3cc(Cl)ccc3Oc3cc(F)c(S(=O)(=O)Nc4ncns4)cc3F)cc12 [Example 45, 4-(2-(3-amino-1H-indazol-5-yl)-4-chlorophenoxy)-2,5-difluoro-N-(1,2,4-thiadiazol-5-yl)benzenesulfonamide]",5.3,,

# Second part, led by results:
IC50 (Nav1.7; read-out: Nav1.7 IC50) [nM],"IC50 (Nav1.7; IC50 class, read-out: Nav1.7) [nM]",Structure (SMILES),IC50 (Nav1.5) [nM]
0.6,,"Nc1noc2ccc(-c3cc(Cl)ccc3Oc3cc(F)c(S(=O)(=O)Nc4ncns4)cc3F)cc12 [Example 44, 4-(2-(3-aminobenzo[d]isoxazol-5-yl)-4-chlorophenoxy)-2,5-difluoro-N-(1,2,4-thiadiazol-5-yl)benzenesulfonamide]",1000 to 10000
17.9,,"O=c1[nH]c2ccc(-c3cc(Cl)ccc3Oc3cc(F)c(S(=O)(=O)Nc4ncns4)cc3F)cc2o1 [Example 53, 4-(4-chloro-2-(2-oxo-2,3-dihydrobenzo[d]oxazol-6-yl)phenoxy)-2,5-difluoro-N-(1,2,4-thiadiazol-5-yl)benzenesulfonamide]",
1.7,,"Nc1noc2ccc(-c3cc(F)ccc3Oc3cc(F)c(S(=O)(=O)Nc4ncns4)cc3F)cc12 [Example 80, 4-(2-(3-aminobenzo[d]isoxazol-5-yl)-4-fluorophenoxy)-2,5-difluoro-N-(1,2,4-thiadiazol-5-yl)benzenesulfonamide]",
